From paper PMC12561453, “Synthesis and Structure–Activity Relationship Study of 2-(amino)quinazolin-4(3H)-one Derivatives as Potential Inhibitors of Methicillin-Resistant Staphylococcus aureus (MRSA)” (Antibiotics, 2025)
Converted amounts (≈) assume the structure as drawn. Like-named read-outs stand apart in the source and are kept apart here.

What was measured:
S. aureus ATCC25923 = test: Broth microdilution dose-response, S. aureus ATCC25923; assay type: cell-based, Staphylococcus aureus; conditions: for antibacterial activity (in words): ATCC25923; for MIC50: OD600 after 18–24 h, read-out: ATCC25923 MIC50
From the text: (§1) The antistaphylococcal activities (MIC50) of the synthesized compounds were examined via a previously described broth microdilution method against two S. aureus strains: ATCC25923, a methicillin-sensitive reference strain, and JE2, a methicillin-resistant strain of the USA300 lineage (Figure 2, Table 1).
(§2) Staphylococcus aureus USA300, a methicillin-resistant strain, was obtained from the Nebraska Transposon Mutant Library. Staphylococcus aureus ATCC25923, a pan-drug-susceptible strain, was purchased from the American Type Culture Collection (ATCC) (Manassas, VA, USA). S. aureus strains were grown in Cation-Adjusted Mueller–Hinton broth (CAMHB) (Difco) at 37 °C. Bacterial strain stocks were stored in vials with 25% glycerol at −80 °C. For each experiment, overnight cultures were prepared by inoculating a frozen bacterial strain stock in 10 mL of CAMHB medium and incubating at 37 °C in a shaking incubator (180 rpm). For the preliminary screen and dose–response experiments, 100 µL of overnight culture was inoculated into 10 mL of fresh CAMHB and incubated for 3 h at 37 °C and 180 rpm.
(§3) Antibiotic susceptibility assay was tested according to modified Clinical and Laboratory Standards Institute (CLSI) laboratory guidelines for broth microdilution assays. S. aureus was cultured in CAMHB, and bacterial cells were prepared with an OD600 of 0.005. DRC plates were prepared by adding 40 µL of bacterial suspension to each well, where 10 µL of each compound had been dispensed for […] of two-fold serial dilutions starting at […]. After incubation of the plates at 37 °C for 18–24 h with 5% CO2, the growth of S. aureus was detected by measuring the OD600nm using an Ensight (Revvity) spectrometer (Revvity, Waltham, MA, USA).
(§4) Figure 2 In vitro antibacterial activities of 2-(amino)quinazolin-4(3H)-one derivatives. S. aureus ATCC25923 (blue) and USA300 JE (orange) strains were incubated with serial dilutions of 2-(amino)quinazolin-4(3H)-one derivatives (0.19–100 µM) for 18–24 h. The dose–responses were observed by measuring OD600nm. The plots were drawn from each group of strains with nonlinear curve fits.

S. aureus USA300 JE2 = test: Broth microdilution dose-response, S. aureus USA300 JE2 (MRSA); assay type: cell-based, Staphylococcus aureus; conditions: for antibacterial activity (in words): JE2; for MIC50: OD600 after 18–24 h, read-out: USA300 MIC50; for fold better antibacterial activity against JE2 compared to compound 1: JE2, versus compound 1
From the text: as §1, §2, §3, §4

HepG2 cells = test: In vitro cytotoxicity, HepG2 viability (resazurin); assay type: cell-based, human; conditions: Homo sapiens, HepG2, 24 h, HepG2 cells, 24 h, resazurin; read-out: HepG2 IC50
Description: The in vitro cytotoxicity of the compounds was evaluated by measuring the viability of HepG2 cells, a human liver cell line, following treatment in a dose–response manner, as previously described. […] The efficacy window was calculated as the ratio of IC50 in HepG2 cells to MIC50 against JE2.
To test cytotoxicity with compounds, the human liver cell line HepG2 (ATCC #HB-8065) was used for the assay. HepG2 was cultured in DMEM with 10% fetal bovine serum (FBS) in a 96-well microplate at 37 °C and 5% CO2. HepG2 cells were seeded at a final density of 5 × 10^4 cells/well, and DMEM-containing diluted compounds were added and incubated on the plates at 37 °C in 5% CO2 for 24 h. After that, resazurin (final concentration, 0.1 mg/mL) was added to each well and incubated on the plates at 37 °C in 5% CO2 for 2 h. To detect the fluorescence at 530 nm excitation and 590 nm emission, an Ensight multimode plate reader was used (Revvity, Waltham, MA, USA).

[1] = test system: S. aureus USA300 JE2 expressing GFP in H460 cells; test: microbe, parasite or virus in culture; assay type: cell-based, Staphylococcus aureus; conditions: for MIC50: Staphylococcus aureus, USA300, 24 h, read-out: H460 Assay MIC50 (MIC50 ex vivo)
From the text: Staphylococcus aureus, including MRSA, can invade host cells and replicate intracellularly, which complicates treatment with current therapies. To evaluate the intracellular antibacterial activities of the selected compounds, the fifteen compounds tested for cytotoxicity were further assessed using a cell infection model based on H460 human lung epithelial cells, which mimic MRSA-mediated pneumonia. H460 cells were infected with the USA300 JE2 expressing green fluorescent protein (GFP) and subsequently treated with the compounds in a dose–response manner, along with three reference antibiotics: vancomycin, linezolid, and erythromycin. After 24 h of incubation, bacterial loads were quantified by measuring GFP fluorescence in each well. MIC50 values determined in the H460 infection model (MIC50 ex vivo) were generally higher than those obtained from the in vitro tests, likely due to either limited compound penetration into host cells or reduced antibacterial effect of the compounds against intracellular bacteria (Figure 3, Table 2). […] These findings underscore the potential of compound 6y as a promising lead for further development as a novel antistaphylococcal agent.
To see the ex vivo antimicrobial activity of the compound, the human lung carcinoma cell line H460 (ATCC #HTB-177) was used. The H460 cells were cultured in RPMI 1640 medium with 10% fetal bovine serum (FBS) and in a 96-well microplate at 37 °C and 5% CO2. Cell lines were cultured for 2 days, until they reached full confluence in the well. S. aureus (USA300-containing and pCM29-encoding GFP) was cultured in CAMHB with 10 µg/mL of chloramphenicol, and bacterial cells were harvested. After washing the bacterial cells with phosphate-buffered saline (PBS) and suspending them in RPMI, infected H460 cells with S. aureus (1 × 10^7 CFU) and incubated them for 2.5 h. Samples were washed three times with PBS. Then, cells were treated with gentamicin (50 µg/mL of gentamicin in RPMI) and incubated for 1 h. Samples were washed with PBS, RPMI-containing diluted compounds were added, and then they were incubated at 37 °C in 5% CO2 for 24 h. To detect the Green fluorescent protein (GFP) signal, an Ensight multimode plate reader and Opera Phenix Plus (Revvity, Waltham, MA, USA) were used.
Ex vivo infection model images were generated using the Opera Phenix Plus high-content imaging system. Images were obtained by a confocal microscope with a 20× water objective lens. To detect the bacteria fluorescence signal (GFP), the Alexa 488 channel (488 nm laser/500–550 filter, Thermo Fisher Scientific, Waltham, MA, USA) was used, and the brightfield channel was used for H460 cell images.
Figure 3 Antibacterial activities of 2-(amino)quinazolin-4(3H)-one derivatives in the H460 infection model. H460 cells were infected with S. aureus USA300 JE strain expressing GFP, followed by treatment with serial dilutions of 2-(amino)quinazolin-4(3H)-one derivatives. After incubation at 37 °C for 24 h with 5% CO2, fluorescence signals of the bacteria were detected at 488 nm/510 nm using a multilabel plate reader.

[2] = Staphylococcus aureus, ATCC25923, methicillin-sensitive strain
[3] = Staphylococcus aureus, USA300, USA300 JE2, methicillin-resistant
[4] = USA300 JE2, methicillin-resistant

| Structure (SMILES) | antibacterial activity (in words) (S. aureus ATCC25923) | MIC50 (S. aureus ATCC25923; [2]) [µM] | antibacterial activity (in words) (S. aureus USA300 JE2) | MIC50 (S. aureus USA300 JE2; [3]) [µM] | MIC50 (S. aureus ATCC25923; methicillin-sensitive strain) [µM] | fold better antibacterial activity against JE2 compared to compound 1 (S. aureus USA300 JE2) | IC50 (HepG2 cells) [µM] | MIC50 [1] [µM] | MIC50 (S. aureus USA300 JE2; [4]) [µM] | H460 Assay MIC50 (MIC50 ex vivo) ([1]; H460 cells infected with USA300 JE2-GFP, 24 h, GFP fluorescence) [µM] |
| --- | --- | --- | --- | --- | --- | --- | --- | --- | --- | --- |
| COc1cc2nc(Nc3cc(Cl)cc(Cl)c3)[nH]c(=O)c2cc1OC [6c, 2-((3,5-Dichlorophenyl)amino)-6,7-dimethoxyquinazolin-4(3H)-one] | complete abolition of antibacterial activity | > 100 | complete abolition of antibacterial activity | > 100 | – | – | – | – | – | – |
| O=c1[nH]c(Nc2cc(Cl)cc(Cl)c2)nc2cc(F)c(F)cc12 [6g, 2-((3,5-Dichlorophenyl)amino)-6,7-difluoroquinazolin-4(3H)-one] | – | 3 to 6 (≈ 1.03 to 2.05 µg/mL) | – | – | 4.0 (≈ 1.37 µg/mL) | at least 6.5 fold | 12.9 | 25.3 (≈ 8.66 µg/mL) | – | – |
| O=c1[nH]c(Nc2ccccc2Cl)nc2cc(Cl)ccc12 [6t, 7-Chloro-2-((2-chlorophenyl)amino)quinazolin-4(3H)-one] | complete loss of activity | > 100 | complete loss of activity | > 100 | – | – | – | – | – | – |
| O=c1[nH]c(Nc2cc(Cl)cc(Cl)c2)nc2c(Br)cc(Br)cc12 [6f, 6,8-Dibromo-2-((3,5-dichlorophenyl)amino)quinazolin-4(3H)-one] | – | 3 to 6 (≈ 1.39 to 2.78 µg/mL) | – | – | 6.0 (≈ 2.78 µg/mL) | at least 6.5 fold | 9.6 | 8.7 (≈ 4.04 µg/mL) | – | – |
| O=c1[nH]c(Nc2cc(Cl)cc(Cl)c2)nc2cc(N3CCOCC3)ccc12 [6b, 2-((3,5-Dichlorophenyl)amino)-7-morpholinoquinazolin-4(3H)-one] | complete abolition of antibacterial activity | > 100 | complete abolition of antibacterial activity | > 100 | – | – | – | – | – | – |
| O=c1[nH]c(NCc2ccc(Cl)cc2Cl)nc2cc(Cl)ccc12 [6x, 7-Chloro-2-((2,4-dichlorobenzyl)amino)quinazolin-4(3H)-one] | – | 2.1 to 4.5 (≈ 0.745 to 1.6 µg/mL) | – | 0.9 to 3 (≈ 0.319 to 1.06 µg/mL) | 3.4 (≈ 1.21 µg/mL) | – | 15.3 | 17.8 (≈ 6.31 µg/mL) | 1.7 (≈ 0.603 µg/mL) | – |
| O=c1[nH]c(Nc2cc(Cl)cc(Cl)c2)nc2cc(Cl)c(Cl)cc12 [6h, 6,7-Dichloro-2-((3,5-dichlorophenyl)amino)quinazolin-4(3H)-one] | – | 3 to 6 (≈ 1.13 to 2.25 µg/mL) | – | 0.3 to 1.9 (≈ 0.113 to 0.713 µg/mL) | 3.7 (≈ 1.39 µg/mL) | at least 6.5 fold | 10.2 | 4.1 (≈ 1.54 µg/mL) | 0.3 (≈ 0.113 µg/mL) | – |
| O=c1[nH]c(Nc2cc(Cl)cc(Cl)c2)nc2c(Cl)c(Cl)ccc12 [6a, 7,8-Dichloro-2-((3,5-dichlorophenyl)amino)quinazolin-4(3H)-one] | – | 10.8 (≈ 4.05 µg/mL) | – | 6.9 (≈ 2.59 µg/mL) | – | – | – | – | – | – |
| O=c1[nH]c(NCc2cc(F)cc(F)c2)nc2cc(Cl)ccc12 [6w, 7-Chloro-2-((3,5-difluorobenzyl)amino)quinazolin-4(3H)-one] | complete loss of activity | > 100 | complete loss of activity | > 100 | – | – | – | – | – | – |
| COc1cccc(Nc2nc3cc(Cl)ccc3c(=O)[nH]2)c1 [6p, 7-Chloro-2-((3-methoxyphenyl)amino)quinazolin-4(3H)-one] | Decreased antibacterial activities | 35.1 (≈ 10.6 µg/mL) | Decreased antibacterial activities | 24.9 (≈ 7.51 µg/mL) | – | – | – | – | – | – |
| O=c1[nH]c(Nc2cccc(F)c2)nc2cc(Cl)ccc12 [6n, 7-Chloro-2-((3-fluorophenyl)amino)quinazolin-4(3H)-one] | – | – | – | – | – | – | 19.7 | 43.8 (≈ 12.7 µg/mL) | – | – |
| O=c1[nH]c(Nc2cc(Cl)cc(Cl)c2)nc2c(Cl)ccc(Cl)c12 [compound 1, 5,8-Dichloro-2-((3,5-dichlorophenyl)amino)quinazolin-4(3H)-one] | – | 3.9 (≈ 1.46 µg/mL) | – | 12.9 (≈ 4.84 µg/mL) | – | – | – | – | – | – |
| CC(=O)NC[C@H]1CN(c2ccc(N3CCOCC3)c(F)c2)C(=O)O1 [linezolid, reference compound] | – | – | – | – | – | – | – | – | – | 1.2 |
| O=c1[nH]c(NCC2CCCCC2)nc2cc(Cl)ccc12 [6s, 7-Chloro-2-((cyclohexylmethyl)amino)quinazolin-4(3H)-one] | Decreased antibacterial activities | 35.5 (≈ 10.4 µg/mL) | Decreased antibacterial activities | 18.1 (≈ 5.28 µg/mL) | – | – | – | – | – | – |
| COc1ccc2c(=O)[nH]c(Nc3cc(Cl)cc(Cl)c3)nc2c1 [6d, 2-((3,5-Dichlorophenyl)amino)-7-methoxyquinazolin-4(3H)-one] | complete abolition of antibacterial activity | > 100 | complete abolition of antibacterial activity | > 100 | – | – | – | – | – | – |
| O=c1[nH]c(Nc2ccccc2)nc2cc(Cl)ccc12 [6m, 7-Chloro-2-(phenylamino)quinazolin-4(3H)-one] | complete loss of activity | > 100 | complete loss of activity | > 100 | – | – | – | – | – | – |
| O=c1[nH]c(Nc2ccc(F)cc2F)nc2cc(Cl)ccc12 [6o, 7-Chloro-2-((2,4-difluorophenyl)amino)quinazolin-4(3H)-one] | complete loss of activity | > 100 | complete loss of activity | > 100 | – | – | – | – | – | – |
| O=c1[nH]c(Nc2cccc(C(F)(F)F)c2)nc2cc(Cl)ccc12 [6r, 7-Chloro-2-((3-(trifluoromethyl)phenyl)amino)quinazolin-4(3H)-one] | – | 2.1 to 4.5 (≈ 0.713 to 1.53 µg/mL) | – | – | 3.1 (≈ 1.05 µg/mL) | – | 15.1 | 35.8 (≈ 12.2 µg/mL) | – | – |
